Experimental data as given in ChEMBL document CHEMBL5303304, “EUbOPEN Chemogenomics Library - IncuCyte” (2023).

Legend:
Type in all cases: toxicity, cell-based
Fibroblast = assay: Incucyte cell viability with human fibroblast; details: 10 µM, compound concentration 10 uM
U2OS = assay: Incucyte cell viability with U2OS; details: human, 10 µM, compound concentration 10 uM
HEK-293T = assay: Incucyte cell viability with HEK293T; details: human, 10 µM, compound concentration 10 uM
Further: unitless GR value; below 1 slowed growth and below 0 cell loss.

CCNC1=N[C@@H]2[C@@H](O)[C@H](O)[C@@H](CO)O[C@@H]2S1
Growth Rate (Fibroblast; 6 h, replicate number 2): 0.18
Growth Rate (Fibroblast; 12 h, replicate number 1): 0.91
Growth Rate (Fibroblast; 12 h, replicate number 2): 0.76
Growth Rate (Fibroblast; 18 h, replicate number 1): 0.83
Growth Rate (Fibroblast; 18 h, replicate number 2): 0.8
Growth Rate (Fibroblast; 24 h, replicate number 1): 0.92
Growth Rate (Fibroblast; 24 h, replicate number 2): 0.99
Growth Rate (U2OS; 0 h, replicate number 1): -0.37
Growth Rate (U2OS; 0 h, replicate number 2): 0.47
Growth Rate (U2OS; 6 h, replicate number 1): 0.53
Growth Rate (U2OS; 6 h, replicate number 2): 0.45
Growth Rate (U2OS; 12 h, replicate number 1): 0.86
Growth Rate (U2OS; 12 h, replicate number 2): 0.79
Growth Rate (U2OS; 18 h, replicate number 1): 0.91
Growth Rate (U2OS; 18 h, replicate number 2): 0.81
Growth Rate (U2OS; 24 h, replicate number 1): 0.95
Growth Rate (U2OS; 24 h, replicate number 2): 0.74
Growth Rate (HEK-293T; 0 h, replicate number 1): -0.01
Growth Rate (HEK-293T; 0 h, replicate number 2): -0.15
Growth Rate (HEK-293T; 6 h, replicate number 2): 0.53
Growth Rate (HEK-293T; 12 h, replicate number 2): 0.93
Growth Rate (HEK-293T; 18 h, replicate number 1): 0.78
Growth Rate (HEK-293T; 24 h, replicate number 1): 0.86
Growth Rate (HEK-293T; 24 h, replicate number 2): 0.89

Fc1ccc(Cl)cc1-c1nc(Nc2ccncc2)c2nccnc2n1
Growth Rate (Fibroblast; 0 h, replicate number 2): -0.5
Growth Rate (U2OS; 0 h, replicate number 1): -0.59
Growth Rate (U2OS; 0 h, replicate number 2): 0.75
Growth Rate (U2OS; 6 h, replicate number 1): 0.78
Growth Rate (U2OS; 6 h, replicate number 2): 0.55
Growth Rate (U2OS; 12 h, replicate number 1): 0.86
Growth Rate (U2OS; 12 h, replicate number 2): 0.77
Growth Rate (U2OS; 18 h, replicate number 1): 0.67
Growth Rate (U2OS; 18 h, replicate number 2): 0.87
Growth Rate (U2OS; 24 h, replicate number 1): 0.95
Growth Rate (U2OS; 24 h, replicate number 2): 0.75
Growth Rate (HEK-293T; 0 h, replicate number 1): -0.93
Growth Rate (HEK-293T; 6 h, replicate number 2): 0.79
Growth Rate (HEK-293T; 12 h, replicate number 2): 0.91

O=C(Nc1ccc(C(O)(C(F)(F)F)C(F)(F)F)cc1)c1ccc(C(F)(F)F)cc1
Growth Rate (Fibroblast; 6 h, replicate number 1): 0.78
Growth Rate (Fibroblast; 6 h, replicate number 2): -0.08
Growth Rate (Fibroblast; 12 h, replicate number 1): 0.64
Growth Rate (Fibroblast; 12 h, replicate number 2): 0.22
Growth Rate (Fibroblast; 18 h, replicate number 1): 0.52
Growth Rate (Fibroblast; 18 h, replicate number 2): 0.11
Growth Rate (Fibroblast; 24 h, replicate number 1): 0.47
Growth Rate (Fibroblast; 24 h, replicate number 2): 0.07
Growth Rate (HEK-293T; 0 h, replicate number 2): -0.33
Growth Rate (HEK-293T; 6 h, replicate number 1): -0.31
Growth Rate (HEK-293T; 6 h, replicate number 2): 0.09
Growth Rate (HEK-293T; 12 h, replicate number 1): -0.13
Growth Rate (HEK-293T; 12 h, replicate number 2): 0.2
Growth Rate (HEK-293T; 18 h, replicate number 1): 0.04
Growth Rate (HEK-293T; 18 h, replicate number 2): 0.18
Growth Rate (HEK-293T; 24 h, replicate number 1): 0.05
Growth Rate (HEK-293T; 24 h, replicate number 2): 0.15

Cc1[nH]c2c(N3CCCCC3)c(-c3ccccc3)nn2c(=O)c1-c1ccc(O)cc1
Growth Rate (Fibroblast; 0 h, replicate number 1): -0.08
Growth Rate (Fibroblast; 6 h, replicate number 2): 0.19
Growth Rate (Fibroblast; 12 h, replicate number 2): 0.39
Growth Rate (Fibroblast; 18 h, replicate number 1): 0.73
Growth Rate (Fibroblast; 18 h, replicate number 2): 0.35
Growth Rate (Fibroblast; 24 h, replicate number 1): 0.64
Growth Rate (Fibroblast; 24 h, replicate number 2): 0.24
Growth Rate (U2OS; 0 h, replicate number 1): -0.56
Growth Rate (U2OS; 6 h, replicate number 1): 0.77
Growth Rate (U2OS; 6 h, replicate number 2): 0.87
Growth Rate (U2OS; 12 h, replicate number 1): 0.9
Growth Rate (U2OS; 12 h, replicate number 2): 0.92
Growth Rate (U2OS; 18 h, replicate number 1): 0.85
Growth Rate (U2OS; 18 h, replicate number 2): 0.93
Growth Rate (U2OS; 24 h, replicate number 1): 0.78
Growth Rate (U2OS; 24 h, replicate number 2): 0.82
Growth Rate (HEK-293T; 0 h, replicate number 1): -0.59
Growth Rate (HEK-293T; 6 h, replicate number 1): 0.95
Growth Rate (HEK-293T; 6 h, replicate number 2): 0.55
Growth Rate (HEK-293T; 12 h, replicate number 2): 0.88

O=c1[nH]c(CS[C@H]2CC[C@H](O)CC2)nc2cc(OCC3CC3)cc(F)c12
Growth Rate (Fibroblast; 0 h, replicate number 2): 0.47
Growth Rate (Fibroblast; 6 h, replicate number 2): 0.65
Growth Rate (Fibroblast; 12 h, replicate number 2): 0.67
Growth Rate (U2OS; 0 h, replicate number 1): -0.28
Growth Rate (U2OS; 0 h, replicate number 2): 0.9
Growth Rate (U2OS; 6 h, replicate number 1): 0.81
Growth Rate (U2OS; 6 h, replicate number 2): 0.82
Growth Rate (U2OS; 12 h, replicate number 1): 0.45
Growth Rate (U2OS; 12 h, replicate number 2): 0.73
Growth Rate (U2OS; 18 h, replicate number 1): 0.92
Growth Rate (U2OS; 18 h, replicate number 2): 0.66
Growth Rate (U2OS; 24 h, replicate number 1): 0.98
Growth Rate (U2OS; 24 h, replicate number 2): 0.64
Growth Rate (HEK-293T; 0 h, replicate number 1): 0.63
Growth Rate (HEK-293T; 18 h, replicate number 2): 1
Growth Rate (HEK-293T; 24 h, replicate number 1): 0.87
Growth Rate (HEK-293T; 24 h, replicate number 2): 0.94

c1ccc(C(OC2CCN(CCCc3nnn[nH]3)CC2)c2ccccc2)cc1
Growth Rate (Fibroblast; 6 h, replicate number 2): -0.26
Growth Rate (Fibroblast; 18 h, replicate number 2): 0.75
Growth Rate (HEK-293T; 6 h, replicate number 1): 0.35
Growth Rate (HEK-293T; 6 h, replicate number 2): 0.46
Growth Rate (HEK-293T; 12 h, replicate number 1): 0.7
Growth Rate (HEK-293T; 12 h, replicate number 2): 0.67
Growth Rate (HEK-293T; 18 h, replicate number 1): 0.57
Growth Rate (HEK-293T; 18 h, replicate number 2): 0.85
Growth Rate (HEK-293T; 24 h, replicate number 1): 0.65
Growth Rate (HEK-293T; 24 h, replicate number 2): 0.75

C[C@@H](COCCC(=O)N1CCN(c2ncc(C(F)(F)F)cn2)CC1)Nc1cn[nH]c(=O)c1C(F)(F)F [ATAMPARIB]
Growth Rate (Fibroblast; 6 h, replicate number 1): 0.88
Growth Rate (Fibroblast; 6 h, replicate number 2): 0.74
Growth Rate (Fibroblast; 12 h, replicate number 1): 0.3
Growth Rate (Fibroblast; 12 h, replicate number 2): 0.15
Growth Rate (Fibroblast; 18 h, replicate number 1): 0.22
Growth Rate (Fibroblast; 18 h, replicate number 2): 0.13
Growth Rate (Fibroblast; 24 h, replicate number 1): 0.39
Growth Rate (Fibroblast; 24 h, replicate number 2): 0.15
Growth Rate (HEK-293T; 0 h, replicate number 1): 0.95
Growth Rate (HEK-293T; 0 h, replicate number 2): 0.81
Growth Rate (HEK-293T; 6 h, replicate number 2): 0.59
Growth Rate (HEK-293T; 12 h, replicate number 2): 0.8
Growth Rate (HEK-293T; 18 h, replicate number 2): 0.9
Growth Rate (HEK-293T; 24 h, replicate number 2): 0.75

Cc1ccc(NC(=O)c2ccc(CN3CC[C@H](N(C)C)C3)c(C(F)(F)F)c2)cc1Nc1nccc(-c2cncnc2)n1 [BAFETINIB]
Growth Rate (Fibroblast; 0 h, replicate number 1): -1
Growth Rate (Fibroblast; 0 h, replicate number 2): 0.2
Growth Rate (Fibroblast; 6 h, replicate number 1): -0.23
Growth Rate (Fibroblast; 6 h, replicate number 2): -0.55
Growth Rate (Fibroblast; 12 h, replicate number 1): 0.05
Growth Rate (Fibroblast; 12 h, replicate number 2): 0.02
Growth Rate (Fibroblast; 18 h, replicate number 1): 0.01
Growth Rate (Fibroblast; 18 h, replicate number 2): 0.39
Growth Rate (Fibroblast; 24 h, replicate number 1): 0.14
Growth Rate (Fibroblast; 24 h, replicate number 2): 0.54
Growth Rate (HEK-293T; 6 h, replicate number 1): 0.57
Growth Rate (HEK-293T; 12 h, replicate number 1): 0.67
Growth Rate (HEK-293T; 12 h, replicate number 2): 0.68
Growth Rate (HEK-293T; 18 h, replicate number 1): 0.96
Growth Rate (HEK-293T; 18 h, replicate number 2): 0.99
Growth Rate (HEK-293T; 24 h, replicate number 1): 0.97

CCN(CC)C(=O)C1CN2CCc3cc(OC)c(OC)cc3C2CC1OC(C)=O (stereo not drawn) [BENZQUINAMIDE]
Growth Rate (Fibroblast; 6 h, replicate number 2): -0.43
Growth Rate (Fibroblast; 12 h, replicate number 2): 1
Growth Rate (Fibroblast; 18 h, replicate number 2): 0.6
Growth Rate (Fibroblast; 24 h, replicate number 2): 0.97
Growth Rate (HEK-293T; 0 h, replicate number 1): 0.39
Growth Rate (HEK-293T; 6 h, replicate number 2): 0.7
Growth Rate (HEK-293T; 12 h, replicate number 2): 0.59
Growth Rate (HEK-293T; 18 h, replicate number 2): 0.61
Growth Rate (HEK-293T; 24 h, replicate number 2): 0.87

CN(C)C(=O)Cn1cc(-c2nc(C3(c4ccc(-c5cnc(N)nc5)cc4)CC3)no2)cn1 [BI 0153]
Growth Rate (Fibroblast; 0 h, replicate number 1): -1
Growth Rate (Fibroblast; 0 h, replicate number 2): -0.89
Growth Rate (Fibroblast; 6 h, replicate number 1): 0.57
Growth Rate (Fibroblast; 6 h, replicate number 2): -0.35
Growth Rate (Fibroblast; 12 h, replicate number 2): 0.4
Growth Rate (Fibroblast; 18 h, replicate number 1): 0.91
Growth Rate (Fibroblast; 18 h, replicate number 2): 0.6
Growth Rate (Fibroblast; 24 h, replicate number 1): 0.73
Growth Rate (Fibroblast; 24 h, replicate number 2): 0.96
Growth Rate (HEK-293T; 0 h, replicate number 1): 0.71
Growth Rate (HEK-293T; 6 h, replicate number 1): 0.25
Growth Rate (HEK-293T; 18 h, replicate number 1): 0.95
Growth Rate (HEK-293T; 24 h, replicate number 1): 0.92

CN[C@@H](C)C(=O)N[C@H](C(=O)N1CCC[C@H]1C(=O)Nc1sc(-c2ncco2)nc1-c1ccccc1)C1CCCCC1 [GDC-0917]
Growth Rate (Fibroblast; 0 h, replicate number 1): -1
Growth Rate (Fibroblast; 6 h, replicate number 2): 0.6
Growth Rate (HEK-293T; 0 h, replicate number 1): 0.71
Growth Rate (HEK-293T; 6 h, replicate number 1): 0.6
Growth Rate (HEK-293T; 6 h, replicate number 2): 0.98
Growth Rate (HEK-293T; 12 h, replicate number 1): 0.93
Growth Rate (HEK-293T; 18 h, replicate number 1): 0.86
Growth Rate (HEK-293T; 24 h, replicate number 1): 0.92
Growth Rate (HEK-293T; 24 h, replicate number 2): 0.99

CC(C)(O)c1cnc(N2C[C@@]3(CCC[C@](C)(Cn4cnc5ccc(C#N)cc54)C3)OC2=O)cn1 [GSK2798745]
Growth Rate (Fibroblast; 0 h, replicate number 1): 0.24
Growth Rate (Fibroblast; 6 h, replicate number 2): -1
Growth Rate (Fibroblast; 12 h, replicate number 2): -0.2
Growth Rate (Fibroblast; 18 h, replicate number 1): -0.39
Growth Rate (Fibroblast; 18 h, replicate number 2): 0.4
Growth Rate (Fibroblast; 24 h, replicate number 2): 0.36
Growth Rate (HEK-293T; 6 h, replicate number 1): -0.31
Growth Rate (HEK-293T; 6 h, replicate number 2): 0.2
Growth Rate (HEK-293T; 12 h, replicate number 1): 0.38
Growth Rate (HEK-293T; 12 h, replicate number 2): 0.41
Growth Rate (HEK-293T; 18 h, replicate number 1): 0.47
Growth Rate (HEK-293T; 18 h, replicate number 2): 0.43
Growth Rate (HEK-293T; 24 h, replicate number 1): 0.49
Growth Rate (HEK-293T; 24 h, replicate number 2): 0.45

Cc1cccc(-c2[nH]c(CNc3ccccc3F)nc2-c2ccc3ncnn3c2)n1 [VACTOSERTIB]
Growth Rate (Fibroblast; 0 h, replicate number 2): -0.26
Growth Rate (Fibroblast; 18 h, replicate number 1): 0.97
Growth Rate (HEK-293T; 0 h, replicate number 1): 0.84
Growth Rate (HEK-293T; 0 h, replicate number 2): -0.43
Growth Rate (HEK-293T; 6 h, replicate number 1): 0.95
Growth Rate (HEK-293T; 6 h, replicate number 2): 0.58
